Laboratory results reported in patent US8222298B2, “Methods of correcting imbalance between bone resorption and bone formation and kits and compositions therefor” (CHU Sainte-Justine, priority 2007, dated 2012).

Key:
RAW264.7 cells [1] = test: Osteoclast differentiation measured by TRAP staining of RANKL-treated RAW264.7 cells; format: cell-based, mouse; settings: 2.5 or 6 days
Method: Cellular model RAW264.7 (mouse macrophage cell line, ATCC # TIB-71). These cells differentiate in osteoclast-like cells upon addition of receptor activator of nuclear factor-kappaB ligand (RANKL). Cell differentiation usually occurs within two days. Cells were studied at 2.5 (early stage), 6 and 10 days (late stage) following RANKL addition. Experimental treatments: In some experiments, 4-P-PDOT was added to the cells at the same time as RANKL at a concentration of 10^−6M. Cells cultured with RANKL only served as controls. In order to assess osteoclastogenesis, RAW264.7 cells were cultured with RANKL for 2.5 or 6 days with and without 10^−6M of 4-P-PDOT. RAW264.7 cells were fixed with paraformaldehyde and stained for TRAP activity (marker of active osteoclasts) at 2.5 and 6 days of differentiation. Positive-stained cells with more than 3 nuclei were counted in eight different microscopic fields done in quadruplicate. Results are presented in FIGS. 3A and B for the 2.5 or 6 days experiments, respectively. […] The effect of melatonin on osteoclastogenesis and osteoclast function was assessed with the same methods as those described in Examples 2 and 3 above except that cells were grown in the presence of 10^−9M of melatonin in addition to RANKL. In some experiments, melatonin was added along with 10^−6M of 4-P-PDOT. Cells treated with RANKL alone served as controls.

[2] = system: adenylyl cyclase activity of forskolin-stimulated RAW 264.7 cells; test: cAMP production in forskolin-stimulated RAW264.7 cells (enzyme immunoassay); format: cell-based, mouse; settings: increasing doses, 10^-4M forskolin, 30 minutes at 37° C., no RANKL
Method: RAW264.7 cells were grown in culture medium without RANKL until confluence (7 days). Cells were then incubated with 10^−4M of forskolin in presence of various concentrations of melatonin (FIG. 9, panel A), 4-P-PDOT (FIG. 9, panel B) or both (FIG. 9, panel C). Concentrations ranged from 10^−11 to 10^−5M for melatonin and from […] to 10^−4M for 4-P-PDOT. In the double treatment group, cells were treated with increasing concentrations of melatonin (10^−11 to 10^−5M) to which 10^−6M of 4-P-PDOT was added. After 30 minutes incubation at 37° C., cells were lysed in TRIS-EDTA buffer supplemented with protease and phosphodiesterase inhibitors at 4° C. The cAMP content was determined in duplicate in 200 μL aliquot of the supernatant using an enzyme immunoassay kit. […]

male C57BL/6 mice = test: Femur section histology (TRAP and Goldner staining) in treated mice; format: in vivo, mouse; settings: 10 mg/kg intraperitoneally three times a week, 4 weeks
Method: The effect of 4-P-PDOT on the formation of bones has also been tested using 4-week old male C57BL/6 mice following weaning. Mice were injected intraperitoneally with 10 mg/kg of 4-P-PDOT three times a week for 4 weeks (28 days). After this period, femur sections were stained to quantify tartrate-resistant acidic phosphatase- (TRAP-) positive osteoclasts (i.e. “active” osteoclasts). […] A Goldner staining was also performed on the femur sections in order to quantify the total number of osteoclasts.

RAW264.7 cells [3] = test: Cell apoptosis by DeadEnd fluorometric TUNEL system; format: cell-based, mouse; settings: 10^-6M 4-P-PDOT with RANKL, 6 days
Method: RAW264.7 cells were grown in culture medium with RANKL for 6 days with or without 10^−6M of 4-P-PDOT. Cells were fixed in 3.7% of paraformaldehyde and permeabilized with 0.2% Triton™-X-100. A subset of cells were treated with DNase for 10 minutes at room temperature and served as positive controls. Cell apoptosis was determined using the DeadEnd™ fluorometric TUNEL system. This method measures fragmented DNA through the incorporation of fluorescent-labeled d-UTP. Permeabilized cells were incubated in equilibration buffer with a nucleotide mix and the enzyme that catalyzes the reaction for 1 hour at 37° C. Negative controls were incubated without the enzyme. After several rinses in SSC and PBS, cells were mounted and visualized by fluorescence microscopy.

RANK = RANK expression by RT-PCR in RAW264.7 cell-derived osteoclasts; format: cell-based, mouse; settings: RT-PCR after 6 days of treatment; 10^-9M melatonin, 10^-6M 4-P-PDOT
Method: The effect of melatonin and of 4-P-PDOT on the expression of various genes involved in osteoclast differentiation and activity was evaluated by RT-PCR after 6 days of treatment.

RAW264.7 cells [4] = test: Cell proliferation by tritiated thymidine incorporation; format: cell-based, mouse; settings: 10^-6M 4-P-PDOT with RANKL, 2.5 days
Method: After 24 hour attachment, RAW264.7 cells were serum-starved overnight and then grown for 2.5 days in culture medium containing RANKL and melatonin (10^−7 or 10^−6M), or melatonin (10^−6M) and a melatonin receptor non-specific antagonist, luzindole (10^−8M), or melatonin (10^−6M) and 4-P-PDOT (10^−6M), or luzindole (10^−6M), or 4-P-PDOT (10^−6M) alone. Thymidine incorporation was assayed by the addition of 0.02 μCi/μL of tritiated thymidine to the medium 8 hours before cell harvest. Cells were then washed twice with ice-cold PBS and three times with cold 5% trichloroacetic acid. Cells were lysed in a mixture of 0.5N NaOH and 0.5% SDS and radioactivity of the lysates determined using a beta-counter.

male C57Bl/6j mice = test: Low-BMD mouse model: weight gain and bone densitometry over 35 days; format: in vivo; settings: 10 mg/kg intraperitoneally three times a week, first 35 days
Method: In parallel, control animals received injections of a solution made of water and ethanol (20%). During this period, animals were subjected to weekly bone densitometric measurements (BMD and bone mineral content (BMC)) with a PixiMus™ II bone densitometer, and blood and urine collection. Scan of individual spine, long bones (femurs), were performed. Scans of tibiae, radius and mandible were also performed. To monitor bone formation rate, 25 mg/kg of tetracycline hydrochloride was injected on days 10 and 20 following the beginning of the injections. Bone histomorphometry for bone formation and resorption static and dynamic parameters were also measured. The biochemical markers used are alkaline phosphatase for bone formation, and urinary deoxypyridinoline for bone resorption.

RAW 264.7 cells = test: Bone resorption assay on resorbable bone analog (BioCoat Osteologic discs); format: cell-based, mouse; settings: 10^-9M melatonin with RANKL, 10 days culture
Method: Osteoclast activity was determined using a resorbable bone analog (BioCoat™ Osteologic™ discs, BD Biosciences). RAW 264.7 cells were plated on 16-well plates coated with this analog. 24 hours post-plating, cells were treated with RANKL alone or with RANKL+10^−6M of 4-P-PDOT for a period of 10 days. In another set of experiments, 10^−6M of 4-P-PDOT was added after 6 days of culture with RANKL and cells were cultured for an additional 4 days in order to examine the effects of 4-P-PDOT on more mature cells. At the end of the culture period, cells were detached with bleach and bone analog stained with 5% silver nitrate according to manufacturer's instructions to reveal the presence of resorbed bone area (resorption pits). The number of pits and the area of resorbed bone were quantified in 8 microscopic fields in duplicate using Bioquant™ software. The effect of melatonin on osteoclastogenesis and osteoclast function was assessed with the same methods as those described in Examples 2 and 3 above except that cells were grown in the presence of 10^−9M of melatonin in addition to RANKL. In some experiments, melatonin was added along with 10^−6M of 4-P-PDOT. Cells treated with RANKL alone served as controls.

SMILES	number of TRAP+ cells (osteoclast differentiation) (RAW264.7 cells [1]; 10^-6M 4-P-PDOT with RANKL)	cAMP production [2]	number of active (TRAP-positive) osteoclasts in femur sections vs control mice (male C57BL/6 mice)	number of total osteoclasts (Goldner staining) in femur sections (male C57BL/6 mice)	reduction in the relative number of active osteoclasts vs vehicle-treated mice (male C57BL/6 mice)	relative number of total osteoclasts vs vehicle-treated mice (male C57BL/6 mice)	trabecular bone (Goldner staining) in femur sections (male C57BL/6 mice)	apoptosis, treated vs. untreated cells (RAW264.7 cells [3])	RANK's expression (RANK)	cell proliferation, treated vs. untreated cells (RAW264.7 cells [4])	bone mineral accretion at the spine and whole body level vs vehicle-injected animals (male C57Bl/6j mice)	weight gain vs vehicle-injected animals (male C57Bl/6j mice)	effect on osteoclastogenesis (TRAP-positive cells) (RAW264.7 cells [1]; 10^-9M melatonin with RANKL)	bone resorption (resorption pits, resorbed area) (RAW 264.7 cells)
CCC(=O)NC1Cc2ccccc2C(c2ccccc2)C1 (stereo not shown) [4-P-PDOT, 4-phenyl-2-propionamidotetralin]	reduces the number of TRAP+ cells	cAMP production increases	significant reduction	increased	about 3 fold	increased	increased	comparable	significant decrease	comparable	increase	increase	–	–
COc1ccc2[nH]cc(CCNC(C)=O)c2c1 [melatonin]	–	inhibited	–	–	–	–	–	–	significant decrease	–	–	–	did not have a significant effect	significantly reduced bone resorption
